Laboratory results from patent US7612107B2, “Treatment and inhibition of disease conditions using flexible heteroarotinoids” (The Board of Regents of the University of Oklahoma, priority 2005, dated 2009).

Tests used:
NF-κB = NF-κB luciferase reporter assay in A2780 cultures; type: cell-based; conditions: 10 μM SHetA2
Description: FIG. 15. SHetA2 Inhibition of NF-κB. A2780 cultures were transfected with the NF-κB reporter and treated with 10 μM SHetA2 for the indicated times. Cell lysates were prepared and evaluated for luciferase activity which was normalized for protein concentration.
Because both TP and TSP4 have DNA binding sites for the NFκB transcription factor in their promoter, the ability of SHetA2 to inhibit activity of NF-κB in ovarian cancer cultures was tested using a luciferase reporter plasmid driven by NF-κB sites in the promoter. […] Inhibition increased over the 4 hour evaluation time (FIG. 15).

OVCAR-3 xenograft tumors = experiment: Histochemical and immunohistochemical evaluation of xenograft tumors (glands, MUC-1, TUNEL); type: in vivo, mouse; conditions: 10 mg/kg/day gavage, end of treatment
Description: Statistically significant higher levels of glands and MUC-1 expression in the tumors of treated animals in comparison to controls treated with sesame oil are indicated by asterisks (*) and were determined by t-tests. For gland formation, p<0.001 for SHetA2, p=0.097 for SHetA4, p=0.001 for SHet50, and p=0.007 for 4-HPR. For MUC-1 scores, p=0.011 for SHetA2, p=0.050 for SHetA4, p=0.040 for SHet50, and p=0.001 for 4-HPR. The higher levels of TUNEL scores in the tumors of treated animals in comparison to control animals approached significance (t-test, p=0.27 for SHetA2, p=0.48 for SHetA4, p=0.20 for SHet50, and p=0.12 for 4-HPR).
On the last day of treatment, the animals were sacrificed and then the tumors were removed, fixed in neutral buffered formalin and embedded in paraffin. […] MUC-1 expression was detected in tumor sections using a mouse monoclonal antibody to human MUC-1 (Pharmingen, San Diego, Calif.) and the Histostain-Plus AEC Kit (Zymed Laboratories, San Francisco, Calif.) according to manufacturers instructions. […] Tumor sections were scored for number of glands (quantified in one H&E stained sections and 3 MUC-1-stained sections) and MUC-1 and TUNEL staining (based on staining intensity and percent positive cells). […]

[1] = system: SW962 vulvar carcinoma cultures; experiment: Annexin-V-Fluos apoptosis assay; type: cell-based; conditions: cancer cell lines
Description: SW962 vulvar carcinoma cultures were treated with 10 μM of the indicated retinoid or the same volume of solvent. At the specified times, the cultures were labeled with Annexin-V-Fluos and propidium iodide (PI), and the number of apoptotic cells was quantified using dual-laser flow cytometric analysis.
(§1) The TUNEL assay was used to evaluate apoptosis in fixed, paraffin embedded, cut sections of the treated and control cultures (FIG. 17). […] These two cellular outcomes appeared to be mutually exclusive.

[2] = system: blood vessel density in bFGF/VEGF-treated CAMs; experiment: Chorioallantoic membrane (CAM) assay; type: in vivo; conditions: 5 μM SHetA2
Description: FIG. 8. Effect of 5 μM SHetA2 on blood vessel density in the CAM assay. The mean±SEM blood vessel density per treatment as compared to bFGF/VEGF-treated CAMs; *=p<0.05 and **=p<0.001 as compared to bFGF/VEGF-treated CAMs as determined by one-way ANOVA and Neuman-Keuls post-test.
The CAM assay that was used is based upon the original procedure by Jakob et al. (36) with modifications made by our laboratory (37, 38) (see FIG. 8).

[3] = system: organotypic cultures of human ovarian cancer cell lines and primary cultures; experiment: Ovarian carcinoma organotypic cultures (TUNEL, histology); type: cell-based
Description: FIG. 17. Retinoid effects on ovarian carcinoma organotypic cultures. Organotypic cultures of OVCAR-3 (A, B, E, F, I and J), Caov-3 (C and G), SK-OV-3 (D and H), and O2 (K and L) were grown in the absence (−, top row and K) or presence (+, middle row and I, J and L) of retinoid HetA4 at a concentration of 1 μM in the media. All sections were stained with H&E except for […], which was stained with PAS to detect glycoproteins and glandular differentiation, and J, which was stained with the TUNEL assay to detect apoptosis. All magnifications are 40×.
To test our hypotheses, we evaluated the effects of clinically achievable concentrations of 4-HPR and Flex-Hets on growth, differentiation and apoptosis in ovarian tissue. A series of compounds with a variety of receptor activation profiles were evaluated. In order to evaluate therapeutic effects, we developed an organotypic culture model of ovarian tumors by growing established cell lines and primary cultures inside collagen gels. Monolayer cultures of cells are not accurate representations of in vivo tissue because they lack the types of interactions that cells have with other cells and with the extracellular matrix in vivo. These interactions are known to influence gene expression and thus the constitution and behavior of cells. In our organotypic model, the growth of tumor cells inside the collagen allows a representation of tumors that have invaded stromal tissue. In the presence of fibroblasts, established cell lines and primary cultures of ovarian cancer formed colonies inside the collagen, while normal or benign ovarian epithelial cells remained as single cells inside the collagen. Human ovarian cancer cell lines (OVCAR-3, Caov-3, SK-OV-3, A2780, UCI 101) and primary human cultures (borderline ovarian tumor (O1), serous papillary tumor (O2), benign ovarian cyst (O3)) were cultured inside and on top of a collagen gel seeded with 3T3 fibroblasts for one week. After further incubation in the presence or absence of 1 μM retinoid (media concentration) for 3, 7 or 14 days, cultures were fixed and sectioned for immunohistochemical analysis.
as §1

CC1(C)CC(C)(C)c2cc(NC(=S)Nc3ccc([N+](=O)[O-])cc3)ccc2S1 [SHetA2]
Time to inhibition of NF-κB activity (NF-κB): ≤ 30 min | MUC-1 expression in xenograft tumors (OVCAR-3 xenograft tumors; vs control): increase staining | Gland formation in xenograft tumors (OVCAR-3 xenograft tumors; vs untreated control): greatest degree of gland induction | Induction of apoptosis (Annexin-V-Fluos) [1]: same concentration range as 4-HPR | Angiogenesis (blood vessel density) in CAM assay [2]: inhibits angiogenesis | Induction of apoptosis (TUNEL) in organotypic cultures ([3]; 1 μM retinoid in media): Apoptosis was induced | Level of apoptosis relative to the other retinoids (TUNEL) ([3]; 1 μM retinoid in media): highest level of apoptosis | Rank as regulator of growth, differentiation and apoptosis among eleven retinoids ([3]; 1 μM, 3, 7 or 14 days): most potent regulator of growth, differentiation and apoptosis
